For one assay, the target named is T1, Peregrin (Homo sapiens) (UniProt P55201).
T1 sequence (whole entry): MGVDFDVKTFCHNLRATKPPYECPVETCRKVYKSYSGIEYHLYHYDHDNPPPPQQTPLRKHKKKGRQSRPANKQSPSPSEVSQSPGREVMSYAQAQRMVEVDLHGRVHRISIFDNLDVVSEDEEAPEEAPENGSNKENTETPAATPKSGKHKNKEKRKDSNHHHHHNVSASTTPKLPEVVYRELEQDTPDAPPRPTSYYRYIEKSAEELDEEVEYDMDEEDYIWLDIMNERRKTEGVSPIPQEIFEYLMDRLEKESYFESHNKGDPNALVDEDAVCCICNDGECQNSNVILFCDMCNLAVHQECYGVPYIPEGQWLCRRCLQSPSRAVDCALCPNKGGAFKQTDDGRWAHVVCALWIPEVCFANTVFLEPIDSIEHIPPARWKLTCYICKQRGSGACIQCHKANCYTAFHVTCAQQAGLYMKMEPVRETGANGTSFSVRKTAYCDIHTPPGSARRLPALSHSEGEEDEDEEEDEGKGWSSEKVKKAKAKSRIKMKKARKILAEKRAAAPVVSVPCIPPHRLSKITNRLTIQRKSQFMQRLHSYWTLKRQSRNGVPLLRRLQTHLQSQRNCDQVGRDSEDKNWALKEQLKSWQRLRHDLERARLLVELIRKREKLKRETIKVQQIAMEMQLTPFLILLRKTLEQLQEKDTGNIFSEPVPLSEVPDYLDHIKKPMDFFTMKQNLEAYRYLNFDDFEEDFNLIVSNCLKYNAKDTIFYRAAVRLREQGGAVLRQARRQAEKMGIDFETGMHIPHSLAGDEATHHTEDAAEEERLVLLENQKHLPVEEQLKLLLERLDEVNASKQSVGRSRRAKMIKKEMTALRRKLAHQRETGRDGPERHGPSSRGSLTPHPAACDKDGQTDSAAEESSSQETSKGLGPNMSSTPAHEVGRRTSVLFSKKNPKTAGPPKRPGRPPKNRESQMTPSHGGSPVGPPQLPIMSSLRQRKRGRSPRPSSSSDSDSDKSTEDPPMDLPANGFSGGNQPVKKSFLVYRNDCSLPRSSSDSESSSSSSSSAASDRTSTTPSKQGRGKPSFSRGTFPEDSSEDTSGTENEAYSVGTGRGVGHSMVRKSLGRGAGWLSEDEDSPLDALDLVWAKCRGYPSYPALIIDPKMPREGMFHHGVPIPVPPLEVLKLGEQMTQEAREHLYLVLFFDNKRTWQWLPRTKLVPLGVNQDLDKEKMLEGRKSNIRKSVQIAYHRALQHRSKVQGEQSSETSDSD
To be noted: Compound concentration 20.0 uM.

Assay [1] has as its target Fibroblast growth factor receptor 2 (Homo sapiens) (UniProt P21802). The settings on record: Compound concentration 20.0 uM.
Description: Thermal Shift Assay. Domain: start/stop: T457-E768

SMILES strings stand for the structures. Non-standard residues stand in square brackets, D forms with d. Residues, ends and D or L forms follow the SMILES beside them. *: point of attachment. Nle = CCCC[C@H](N)C(=O)O; Cbz = O=C(OCc1ccccc1)*; Boc = CC(C)(C)OC(=O)*

55 compounds from ChEMBL document CHEMBL5724796, “Tm Shift (DSF) assay results for EUbOPEN Chemogenomics Library” (2024) can be followed below.

Fibroblast growth factor receptor 2 (Homo sapiens), sequence (P21802 22-821 limits assumed): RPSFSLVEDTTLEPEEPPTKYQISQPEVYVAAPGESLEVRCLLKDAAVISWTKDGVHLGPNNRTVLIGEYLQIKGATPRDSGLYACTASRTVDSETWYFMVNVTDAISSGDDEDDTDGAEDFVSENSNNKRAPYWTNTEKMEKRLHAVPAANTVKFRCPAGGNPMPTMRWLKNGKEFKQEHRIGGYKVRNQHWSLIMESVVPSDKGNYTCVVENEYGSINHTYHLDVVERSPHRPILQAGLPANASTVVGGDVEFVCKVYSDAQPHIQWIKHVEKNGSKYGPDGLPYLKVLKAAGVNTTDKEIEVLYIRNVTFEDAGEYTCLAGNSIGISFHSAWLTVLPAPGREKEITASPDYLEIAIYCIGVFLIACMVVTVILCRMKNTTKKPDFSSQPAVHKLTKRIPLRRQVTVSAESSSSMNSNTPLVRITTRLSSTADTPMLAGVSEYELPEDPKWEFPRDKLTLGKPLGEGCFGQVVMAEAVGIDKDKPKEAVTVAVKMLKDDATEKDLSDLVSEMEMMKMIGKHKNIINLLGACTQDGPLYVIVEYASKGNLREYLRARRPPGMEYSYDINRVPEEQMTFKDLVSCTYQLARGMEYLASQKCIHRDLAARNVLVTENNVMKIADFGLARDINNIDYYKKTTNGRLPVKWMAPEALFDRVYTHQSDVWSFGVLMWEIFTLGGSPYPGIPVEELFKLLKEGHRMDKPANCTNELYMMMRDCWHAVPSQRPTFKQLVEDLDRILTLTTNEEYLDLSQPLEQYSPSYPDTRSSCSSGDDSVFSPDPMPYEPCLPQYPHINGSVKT

As usually defined, the ΔTm is the shift of the melting midpoint relative to a reference. Consider `O=c1[nH]c(CS[C@H]2CC[C@H](O)CC2)nc2cc(OCC3CC3)cc(F)c12`, for which the ΔTm on Peregrin (Homo sapiens) is -0.24 °C; in assay [1], -0.27 °C.
For `COc1cc(Cl)ccc1C1=CN(c2ccc(-c3ccccc3OC)cc2)C2=NCCCN12`, the ΔTm is -0.95 °C at Peregrin (Homo sapiens) and -1.01 °C in assay [1].
For `CC(C)C(=O)c1c(C(C)C)nn2ccccc12` the same measures were 0.32 °C and -0.49 °C.
In the case of `CCCCCCNC(=O)n1cc(Cl)c(=O)n(C(=O)OCC(C)C)c1=O`, the ΔTm on Peregrin (Homo sapiens) came to 0.68 °C; in assay [1], 0.1 °C.
The like results for `CNc1cc(-c2cccc(Cl)c2Cl)nc(N)n1` were, in that order, 0.7 °C and -0.72 °C.
With `CCCCCCCCCCCCC/C=C/[C@@H](O)[C@H](CO)NC(=O)CBr`, the ΔTm is -2.74 °C on Peregrin (Homo sapiens) and -18.9 °C in assay [1].
The like results for `Cc1ccnc(NS(=O)(=O)c2ccc(NC(=O)Nc3ccc(S(=O)(=O)Nc4nccc(C)n4)cc3)cc2)n1` were, in that order, 0.27 °C and -0.47 °C.
The like results for `Nc1ncnc2nc(-c3ccc(N4CCOCC4)nc3)cc(-c3cccc(Br)c3)c12` were, in that order, -0.37 °C and 0.52 °C.
The like results for `COC[C@@H]1CCCN1S(=O)(=O)c1ccc2c(c1)C(=O)C(=O)N2` were, in that order, -0.85 °C and 0.48 °C.
Consider `CCCCN(Cc1ccc(C(=O)NO)cc1)C(=O)Nc1ccccc1`, for which the ΔTm at Peregrin (Homo sapiens) is -0.92 °C; in assay [1] it was -0.44 °C.
With `COc1ccc(C2C(C#N)=C(N)OC3=C2C(=O)CC(c2cccc4ccccc24)C3)cc1` (stereo not given), the ΔTm on Peregrin (Homo sapiens) is 0.11 °C; in assay [1], -0.92 °C.
The like results for `CNCCC(Oc1ccccc1OC)c1ccccc1` (stereo not given) were, in that order, 1.17 °C and 0.13 °C.
As for `Cc1ccc2[nH]c(-n3nc(C)c(Cc4ccccc4)c3O)nc2c1`, the shift in melting temperature (ΔTm) was 0.31 °C at Peregrin (Homo sapiens) and -0.11 °C in assay [1].
With `CCn1c(=O)c(C)cn(Cc2nnc(-c3ccc(F)c(O)c3F)s2)c1=O`, the ΔTm at Peregrin (Homo sapiens) was -0.64 °C; in assay [1] it was 0.53 °C.
For the compound `CCCCOc1c(OC)cc(C(=O)NCC2(N(C)C)CCOCC2)cc1OC`, the ΔTm was -1.37 °C on Peregrin (Homo sapiens) and -0.02 °C in assay [1].
The like results for `CNC(=O)c1cc(Nc2ccnc(Nc3ccc(CCNC(=O)OC(C)(C)C)cc3)n2)n[nH]1` were, in that order, -1.87 °C and 0.64 °C.
Turning to `CC(C)=C[C@H]1C[C@H](C)[C@]2(CC[C@]3(C)C[C@H]4[C@H](C(=O)C[C@@]4(C)O)/C(C=O)=C\C[C@H]32)O1`, the ΔTm was -0.47 °C at Peregrin (Homo sapiens) and 0.16 °C in assay [1].
For `O=C(NC[C@H](O)CN1CCc2ccccc2C1)c1cc(NC2COC2)ncn1`, the figures for the ΔTm (on Peregrin (Homo sapiens); in assay [1]) were -1.25 °C and 0.37 °C, respectively.
As for `Cn1c(=O)c2c(nc(N3CCNCC3)n2Cc2nnc(-c3ccc(Cl)c(Cl)c3)o2)n(C)c1=O`, the ΔTm is -0.83 °C at Peregrin (Homo sapiens) and 0.08 °C in assay [1].
The like results for `Cc1cc(C(=O)N2CCN(C3CN(C(=O)c4ccc(-c5ccccc5)cc4)C3)CC2)no1` were, in that order, -1.49 °C and 1.38 °C.
The like results for `CCCC[C@@H](C=O)NC(=O)[C@H](CC(C)C)NC(=O)[C@H](CC(C)C)NC(C)=O` (Ac-Leu-Leu-[Nle]-aldehyde) were, in that order, -1.4 °C and 0.84 °C.
For the compound `O=C(NCCCn1ccnc1)c1cc2nc(-c3ccccc3)cc(-c3ccccc3)n2n1`, the ΔTm at Peregrin (Homo sapiens) is -1.26 °C; in assay [1] it was 0.5 °C.
As to `O=C(Nc1c[nH]nc1C(=O)NC1CCNCC1)c1cc(F)cc(F)c1`, the ΔTm is -3.15 °C at Peregrin (Homo sapiens) and 0.46 °C in assay [1].
`Cc1c(CN2CCC(Nc3ncnc4sc(CC(F)(F)F)cc34)CC2)ccc2[nH]c(C#N)cc12`: the ΔTm on Peregrin (Homo sapiens) is -2.53 °C; in assay [1], 0.11 °C.
The like results for `CC(C)c1c(-c2cnn(C(C)(C)C)c2)[nH]c2c(C#N)cnn2c1=O` were, in that order, 0.8 °C and 0.36 °C.
For `CS(=O)(=O)c1ncn2c(NCc3c(F)ccc4c3CCO4)ncc(-c3ccc(C4CC4)nc3)c12` the same measures were -0.81 °C and -0.76 °C.
On to `O=[N+]([O-])c1cc(O)c(O)c([N+](=O)[O-])c1`, for which the values for the ΔTm (at Peregrin (Homo sapiens); in assay [1]) were 2.24 °C and 0.52 °C, respectively.
The like results for `CN(C)CC(c1ccc(O)cc1)C1(O)CCCCC1` (stereo not given) were, in that order, -1.07 °C and -0.09 °C.
Consider `O=CC1CCCN1C(=O)C1CCCN1C(=O)OCc1ccccc1` (stereo not drawn) (Cbz-Pro-Pro-aldehyde; configuration not given here), for which the ΔTm on Peregrin (Homo sapiens) was -0.94 °C; in assay [1] it was 0.49 °C.
The like results for `O=[N+]([O-])c1c(Nc2cc(F)cc(Cl)c2)ccc2nonc12` were, in that order, 0.04 °C and -0.15 °C.
The like results for `Cc1sc2c(c1C)C(c1ccc(Cl)cc1)=N[C@@H](CC(=O)OC(C)(C)C)c1nnc(C)n1-2` were, in that order, -1.61 °C and 0.6 °C.
`CN(Cc1cc(Br)cc(Br)c1N)C1CCCCC1`: the values for the ΔTm (at Peregrin (Homo sapiens); in assay [1]) were 1.45 °C and -0.25 °C, respectively.
The like results for `CCCCCCNC(=O)n1cc(F)c(=O)[nH]c1=O` were, in that order, 0.95 °C and 0.03 °C.
As for `COc1cccc(OC)c1S(=O)(=O)Nc1noc2cc(Cn3cccn3)cc(OC)c12`, the ΔTm was -0.57 °C at Peregrin (Homo sapiens) and -3.46 °C in assay [1].
For `CS(=O)(=O)n1cc2c(n1)CN([C@H]1CO[C@H](c3cc(F)ccc3F)[C@@H](N)C1)C2`, the ΔTm on Peregrin (Homo sapiens) was 1.17 °C; in assay [1] it was -0.38 °C.
As to `O=C(NCc1ccc(Cl)cc1)C1CCN(S(=O)(=O)c2cc(Cl)cc(Cl)c2)CC1`, the ΔTm is 1.09 °C at Peregrin (Homo sapiens) and -0.34 °C in assay [1].
For `CC(C)[C@H](NC(=O)[C@H](CCC(=O)O)NC(=O)[C@H](C)NC(=O)OC(C)(C)C)C(=O)N[C@H](C=O)CC(=O)O` (Boc-AEVD-aldehyde) the same measures were -1.27 °C and 0.45 °C.
`CC(=O)OCCN1C(=O)c2c(C)nc3ccc(S(=O)(=O)N4CCOCC4)cc3c2C1=O`: the results for the ΔTm (at Peregrin (Homo sapiens); in assay [1]) were -0.89 °C and 0.68 °C, respectively.
The like results for `CCN(CC)c1ccc(C2=NNC(=O)C[C@H]2C)cc1[N+](=O)[O-]` were, in that order, 1.09 °C and 0.2 °C.
For `CCN(CCN(C)C)C(=O)CNCc1cc(C(N)=O)ccn1` the same measures were -1.31 °C and 0.97 °C.
As to `OC[C@H]1O[C@@H](c2ccc(Cl)c(Cc3ccc(O[C@H]4CCOC4)cc3)c2)[C@H](O)[C@@H](O)[C@@H]1O`, the figures for the thermal shift (ΔTm) (on Peregrin (Homo sapiens); in assay [1]) were 1.01 °C and -0.41 °C, respectively.
The like results for `O=C(NO)c1ccc(CN2CCCc3cc(Cl)ccc32)cc1` were, in that order, -1.37 °C and 0.45 °C.
Turning to `CSCC[C@H](NC(=O)[C@H](CC(=O)O)NC(C)=O)C(=O)N[C@@H](CCC(N)=O)C(=O)N[C@H](C=O)CC(=O)O` (Ac-DMQD-aldehyde), the ΔTm at Peregrin (Homo sapiens) was -1.78 °C; in assay [1], 0.77 °C.
As to `CC(C)c1cnc(CSc2cnc(NC(=O)C3CCNCC3)s2)o1`, the results for the ΔTm (at Peregrin (Homo sapiens); in assay [1]) were -1.67 °C and 0.73 °C, respectively.
For `COc1ccc([C@@H]2CNC(=O)C2)cc1OC1CCCC1` the same measures were 0.39 °C and -0.37 °C.
With `O=C1C(P(=O)(O)O)CCCN1O` (stereo not given), the ΔTm on Peregrin (Homo sapiens) is -1.07 °C; in assay [1], 0.23 °C.
The like results for `Fc1ccc(CNc2ncnc3ccc(F)cc23)cc1` were, in that order, 1.26 °C and -0.12 °C.
For `Cc1nn(CC(F)(F)F)cc1Nc1ncc(Br)c(NCc2ccc(S(N)(=O)=O)cc2)n1` the same measures were -0.36 °C and 2.95 °C.
For `Cc1nccn1CC1CCc2c(c3ccccc3n2C)C1=O` (stereo not given) the same measures were 0.91 °C and -0.16 °C.
Turning to `C=CC(=O)Nc1cccc(-c2c[nH]cc2CN(C)CCN)c1`, the ΔTm on Peregrin (Homo sapiens) is -1.04 °C; in assay [1] it was 0.24 °C.
Turning to `Cc1cc(OCCCNCC(C)(C)C(N)=O)ccc1Cc1c(O[C@@H]2O[C@H](CO)[C@@H](O)[C@H](O)[C@H]2O)n[nH]c1C(C)C`, the figures for the ΔTm (on Peregrin (Homo sapiens); in assay [1]) were 1.07 °C and -0.15 °C, respectively.
For the compound `CC(C)NC(=O)c1ccc(OC(F)F)c(OCC2CC2)c1`, the ΔTm on Peregrin (Homo sapiens) was 0.69 °C; in assay [1], 0.29 °C.
The like results for `O=c1[nH][nH]c(=O)c2cc(OCc3ccsc3)ccc12` were, in that order, 3.18 °C and 0.19 °C.
For `CCCSc1nc2c(c(=O)n1-c1ccccc1)SCC2` the same measures were 0.27 °C and 0.36 °C.
Regarding `O=C(NNc1ccccn1)c1ccccn1`, the ΔTm was 0.74 °C at Peregrin (Homo sapiens) and 0.02 °C in assay [1].
